“Also recorded” adds a separate entry of the source. One block for each compound: values may come before it.
How the values were obtained:
[1] = biological target: T1, G. gallus AIR carboxylase (Gallus gallus, UniProt P38024); conditions: cited from earlier work
T1 sequence (P38024 1-426): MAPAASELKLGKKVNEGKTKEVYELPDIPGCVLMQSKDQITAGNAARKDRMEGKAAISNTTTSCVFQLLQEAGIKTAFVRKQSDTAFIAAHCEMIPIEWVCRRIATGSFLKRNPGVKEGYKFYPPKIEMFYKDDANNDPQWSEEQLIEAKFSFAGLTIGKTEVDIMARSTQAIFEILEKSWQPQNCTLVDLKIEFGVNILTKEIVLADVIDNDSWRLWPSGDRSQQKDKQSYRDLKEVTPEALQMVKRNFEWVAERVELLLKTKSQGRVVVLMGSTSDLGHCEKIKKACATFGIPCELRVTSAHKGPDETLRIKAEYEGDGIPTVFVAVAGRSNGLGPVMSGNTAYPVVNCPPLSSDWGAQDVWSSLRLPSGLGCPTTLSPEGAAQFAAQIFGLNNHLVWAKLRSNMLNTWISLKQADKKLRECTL

[2] = test system: N^5-CAIR mutase; conditions: fungal and bacterial N^5-CAIR mutase; cited from earlier work
[3] = biological target: T1, G. gallus AIR carboxylase; test: Inhibition of AIR carboxylase, CAIR decarboxylation assay; assay type: biochemical, G. gallus (chicken)
[4] = biological target: T1, G. gallus AIR carboxylase; test: Test as alternative substrates for AIR carboxylase; assay type: biochemical; conditions: UV and HPLC analysis

Compound: Nc1c([N+](=O)[O-])ncn1[C@@H]1O[C@H](COP(=O)(O)O)[C@@H](O)[C@H]1O [Compound 3, 4-nitro-5-aminoimidazole ribonucleotide]
fold tighter affinity for the enzyme than CAIR ([1]; compared with CAIR): 10,000 fold
type of inhibition / kinetics ([1]; listed as NAIR): slow, tight binding inhibitor; also recorded: slow, tight-binding kinetics
type of inhibition [2]: steady-state competitive inhibitor

fold difference in binding affinity, CAIR into CAPzR ([3]; compared to CAIR): 3 fold
binding affinity relative to CAIR ([3]; in words): greater affinity than CAIR
Compound: Nc1c(C(=O)O)cnn1[C@@H]1O[C@H](COP(=O)(O)O)[C@@H](O)[C@H]1O [Compound 8, 5-Amino-1-(β-D-ribofuranosyl)pyrazole-4-carboxylate 5′-phosphate]

Compound: Nc1c(C(=O)O)nnn1[C@@H]1O[C@H](COP(=O)(O)O)[C@@H](O)[C@H]1O [Compound 10, 5-Amino-1-(β-D-ribofuranosyl)-1,2,3-triazole-4-carboxylate 5′-phosphate]
alternative substrate for the enzyme [4]: neither compound is an alternative substrate
